Laboratory results: PubChem BioAssay (NCI)
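96-well plates; 48 h exposure; 5 concentrations. Endpoints by linear interpolation between flanking doses. Not reached: highest tested concentration assigned. Abbreviation: GI50, concentration required for 50% inhibition of growth. TGI is the concentration that stops growth completely.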

Experiments:
Test in all cases: DTP human tumour cell line panel, 48 h
HCT-15 colon = system: HCT-15 colon
SK-MEL-28 melanoma = system: SK-MEL-28 melanoma
UACC-62 melanoma = system: UACC-62 melanoma
HOP-62 NSCLC = system: HOP-62 NSCLC
SW-620 colon = system: SW-620 colon
NCI-H226 lung = system: NCI-H226 lung
OVCAR-8 ovarian = system: OVCAR-8 ovarian
M14 melanoma = system: M14 melanoma
TK-10 renal = system: TK-10 renal
MCF7 breast = system: MCF7 breast

SMILES	GI50 (HCT-15 colon) [µM]	TGI (HCT-15 colon) [µM]	GI50 (SK-MEL-28 melanoma) [µM]	TGI (SK-MEL-28 melanoma) [µM]	GI50 (UACC-62 melanoma) [µM]	TGI (UACC-62 melanoma) [µM]	GI50 (HOP-62 NSCLC) [µM]	TGI (HOP-62 NSCLC) [µM]	GI50 (SW-620 colon) [µM]	TGI (SW-620 colon) [µM]	GI50 (NCI-H226 lung) [µM]	TGI (NCI-H226 lung) [µM]	GI50 (OVCAR-8 ovarian) [µM]	TGI (OVCAR-8 ovarian) [µM]	GI50 (M14 melanoma) [µM]	TGI (M14 melanoma) [µM]	GI50 (TK-10 renal) [µM]	TGI (TK-10 renal) [µM]	GI50 (MCF7 breast) [µM]	TGI (MCF7 breast) [µM]
O=C(O)c1cc[c]([Hg][S]c2ncnc3nc[nH]c23)cc1	11.2	27.2	17.4	32	2.88	15.4	10.7	26.1	11.4	23.5	> 39	> 68	4.44	25.3	2.18	14	2.59	14.3	2.6	> 38.9
Cc1cccc(NC(=O)c2sc3nc4c(cc3c2N)CCCC4)c1C	0.363	> 100	> 48.4	> 100	0.533	> 100	0.537	> 100	0.369	> 100	1.44	> 25.1	0.754	> 100	0.355	> 100	23.3	> 100	0.339	> 100
N#CC(C#N)SCc1ccccc1		> 92		> 100		> 93.1		> 100		> 100		76.6		49.9		> 100		> 100		> 100
CCOC(=O)c1c(NC(=O)c2ccc(C(C)C)cc2)sc2c(CN(C)C)c(O)ccc12	1.17	2.74	1.73	3.24	1.82	3.48	2.2	5.89	1.7	3.41	2.19	6.48	3.56	16.3	1.77	3.48	3	9.39	1.75	3.77
CC(=O)c1cccc(N(/C=C/C(=O)C(F)(F)F)CC(=O)c2ccc(Cl)cc2)c1	> 100	> 100	> 100	> 100	> 100	> 100	> 100	> 100	> 100	> 100	> 100	> 100	> 100	> 100	> 100	> 100	> 100	> 100	> 100	> 100
